Experimental data taken from patent US20180098954A1, “AMELIORATING AGENT FOR EXERCISE-INDUCED GASTROINTESTINAL DISORDERS” (AJINOMOTO CO., INC., priority 2015, published 2018).

Columns and labels:
CD2F1 mice [1] = experiment: feed intake after totally exhausting treadmill exercise for 3 consecutive days; format: in vivo; conditions: male CD2F1 mice; normal diet added with cystine (2%) in place of casein for 8 days; after totally exhausting exercise for 3 consecutive days; versus exercise group; P<0.05 (FIG. 5)
Excerpt: Athletes are known to experience gastrointestinal upset and loss of appetite in scenes where intense training such as a camp training and the like are repeated. Therefore, the improving effect of cystine on exercise-induced decrease in appetite was studied by the following test. 6-Week-old male CD2F1 mice (Charles River Laboratories Japan, Inc.) were divided into 3 groups (non-exercise group, exercise group, and exercise+2% cystine group), and a normal diet (AIN-93G composition) was given to non-exercise group and exercise group, and a normal diet (AIN-93G composition) added with cystine (2%) in place of casein was given to exercise+2% cystine group, each for 8 days. Thereafter, exercise group and exercise+2% cystine group were made to run in a treadmill to total exhaustion for 3 consecutive days, and non-exercise group was not allowed to exercise (see FIG. 4). While exercise group and exercise+2% cystine group ran, non-exercise group was fasted and deprived of water. A new feed was given every day after completion of the totally exhausting exercise, recovered the next day and the amount of the remaining feed was measured, from which feed intake was calculated.

CD2F1 mice [2] = experiment: gastrointestinal tract permeability of FD4 (FITC-dextran) after 4 hr running in a hamster wheel; format: in vivo; conditions: male CD2F1 mice, FD4 500 mg/kg orally
Excerpt: It is known that high molecular weight substances that are not usually absorbed from the gastrointestinal tract penetrate the intestine and enter the blood when the barrier function of the gastrointestinal tract is declined (FIG. 1). Therefore, the improving effect of cystine on exercise-induced decline in gastrointestinal tract barrier function was studied by the following test. […] According to the method described in Cani et al., Gut 2009, 58(8) : 1091-1103, which is incorporated herein by reference in its entirety, FD4 concentration that leaked into the blood from the gastrointestinal tract was calculated by measuring the fluorescence intensity in the blood, based on which the gastrointestinal tract permeability of FD4 was evaluated (see FIG. 2). To be specific, blood was collected from the mice under isoflurane anesthesia, the collected blood was centrifuged to give plasma, the obtained plasma was diluted 2-fold with phosphate buffer, and fluorescence intensity was measured under the conditions of excitation wavelength: 485 nm, detection wavelength: 535 nm (measurement device SPECTRA MAX GEMINI EM Molecular Devices Japan). […] After completion of running, the gastrointestinal tract permeability of FD4 was evaluated in the same manner as in Example 1.

N[C@@H](CSSC[C@H](N)C(=O)O)C(=O)O [cystine]
relative feed intake after exercise (Pre run as 100%) (CD2F1 mice [1]): significantly high as compared to the exercise group | FD4 concentration in blood (gastrointestinal tract permeability), compared to Gln+Ex (CD2F1 mice [2]; cystine (2%) diet versus glutamine (2%) diet for 7 days, blood after 1 hr (FIG. 3)): lower FD4 concentration in blood as compared to the group (Gln+Ex) | FD4 concentration in blood (gastrointestinal tract permeability), compared to Ex (CD2F1 mice [2]; normal diet added with cystine (2%) for 7 days, blood after 1 hr, versus exercise group on normal diet, P<0.05 (FIG. 3)): lower FD4 concentration in blood as compared to Ex
